# Patent US20240050395A1 (priority 2020, published 2024)
# Test system: SU-DHL-1 lymphoma cells
# Settings: mouse, in vivo
compound,measurement,value
O=P1(N(CCCl)CCCl)NCCCO1 (stereo not drawn) [cyclophosphamide],animal weight relative to the average weight on day 0,104.7%±1.6%
same,mean tumor volume,367±79 mm^3
same,tumor volume inhibition rate TGITV,−93%
